Among the data in ChEMBL document CHEMBL1275520, “Metronidazole lacks antibacterial activity in guinea pigs infected with Mycobacterium tuberculosis” (Antimicrob Agents Chemother, 2008) are Activity values, retold here.

Molecules are shown by their SMILES. Calls of active or inactive are those of the source. The rule behind the calls is not given here.

In series [1] the test system is Mycobacterium tuberculosis. As to the kind of experiment: Antibacterial activity against Mycobacterium tuberculosis infected in Hartley guinea pig lung assessed as reduction in bacteria induced progression of inflammation at 100 mg/kg after 4 weeks by histological analysis relative to control. The class given is functional, organism-based. Also noted: dose 100 mg/kg.

Series [2] relates to Mycobacterium tuberculosis. In words: Antibacterial activity against Mycobacterium tuberculosis infected in Hartley guinea pig spleen assessed as reduction in bacterial load at 100 mg/kg. The class given is functional, organism-based. Also noted: dose 100 mg/kg.
Series [3] is described as follows: Toxicity in Hartley guinea pig lung assessed as formation of TB lesions by histological analysis. To be noted: in vivo. Also noted: species or system Cavia porcellus.
In series [4] the test system is Mycobacterium tuberculosis. In words: Antibacterial activity against Mycobacterium tuberculosis infected in Hartley guinea pig lung assessed as reduction in development of new secondary lesions at 100 mg/kg after 4 weeks by histological analysis relative to control. The class given is functional, organism-based. Details: dose 100 mg/kg.
Series [5] concerns Mycobacterium tuberculosis. In words: Antibacterial activity against Mycobacterium tuberculosis infected in Hartley guinea pig lung assessed as reduction in bacterial load at 100 mg/kg. The class given is functional, organism-based. Also noted: dose 100 mg/kg.
For series [6], the system named is Mycobacterium tuberculosis. As to the kind of experiment: Antibacterial activity against Mycobacterium tuberculosis infected in Hartley guinea pig lung assessed as reduction in development of new secondary lesions at 30 mg/kg after 4 weeks by histological analysis relative to control. Details: dose 30 mg/kg. It is filed as functional, organism-based.
The subject of series [7] is Mycobacterium tuberculosis. In words: Antibacterial activity against Mycobacterium tuberculosis infected in Hartley guinea pig lung assessed as reduction in bacteria induced progression of inflammation at 30 mg/kg after 4 weeks by histological analysis relative to control. It is filed as functional, organism-based. Details: dose 30 mg/kg.
The subject of series [8] is Mycobacterium tuberculosis. In words: Antibacterial activity against Mycobacterium tuberculosis infected in Hartley guinea pig lung assessed as reduction in bacterial load at 30 mg/kg. Details: dose 30 mg/kg. It is filed as functional, organism-based.
The subject of series [9] is Mycobacterium tuberculosis. In words: Antibacterial activity against Mycobacterium tuberculosis infected in Hartley guinea pig spleen assessed as reduction in bacterial load at 30 mg/kg. The class given is functional, organism-based. Also noted: dose 30 mg/kg.

With `Cc1ncc([N+](=O)[O-])n1CCO` [METRONIDAZOLE], the outcome in [1], in series [2], in series [4] and in [5] was inactive. In addition, the Activity result in series [3] is reported as “Toxic”.

As to `NNC(=O)c1ccncc1`, the result in [6], in [7], in [8] and in [9] was Active.
